{"source": "patent US8143254B2", "about": "“Methods for modulating ion channels” (Cornell Research Foundation, Inc., priority 2005, dated 2012)", "type_in_all_cases": "cell-based", "key": {"Δ1-28 Kv3.4 channels": {"target": "T1, Δ1-28 Kv3.4 channels (Homo sapiens, UniProt Q03721)", "T1 construct": "expressed in transfected cells; host or cells: Xenopus oocytes (cRNA injection)", "T1 sequence (Q03721 29-635)": "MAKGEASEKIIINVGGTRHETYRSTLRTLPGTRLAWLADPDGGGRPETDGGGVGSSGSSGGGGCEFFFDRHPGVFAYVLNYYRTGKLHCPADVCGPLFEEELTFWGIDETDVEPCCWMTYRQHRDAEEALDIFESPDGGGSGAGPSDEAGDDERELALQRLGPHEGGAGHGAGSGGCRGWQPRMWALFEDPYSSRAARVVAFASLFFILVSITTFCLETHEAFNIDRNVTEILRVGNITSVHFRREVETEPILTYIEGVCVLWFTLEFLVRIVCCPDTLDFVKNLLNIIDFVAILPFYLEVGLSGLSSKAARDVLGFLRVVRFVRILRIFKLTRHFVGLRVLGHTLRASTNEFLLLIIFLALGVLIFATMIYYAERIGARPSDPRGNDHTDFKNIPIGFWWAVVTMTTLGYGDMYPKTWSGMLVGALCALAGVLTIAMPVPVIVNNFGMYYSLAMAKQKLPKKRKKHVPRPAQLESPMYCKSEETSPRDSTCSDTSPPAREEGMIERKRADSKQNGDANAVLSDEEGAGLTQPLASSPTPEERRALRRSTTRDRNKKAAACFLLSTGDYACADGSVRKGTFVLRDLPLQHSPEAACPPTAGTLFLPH", "assay": "TEVC current-voltage relationship of Δ1-28 Kv3.4 in Xenopus oocytes", "settings": "1 mM", "protocol": "FIG. 6. Opening and block of Kv3.4 by two didabco compounds show voltage-dependency. Normalized I/V relationship for Δ1-28 Kv3.4 currents in oocytes in the absence (control) or presence as indicated of 1 mM JC279.3a or JC638.2a. Peak currents during 2 s pulses to voltages between −80 and +60 mV (protocol upper left insert) were recorded, before and after drug was washed in during successive 0.1 Hz, 2 s pulses from −80 to 0 mV until equilibrium block or opening was observed. Points are means from n=3-16 oocytes; error bars indicate SEM.\nWhole-cell two-electrode voltage-clamp (TEVC) recordings were performed on X laevis oocytes expressing cloned Kv2.1, Kv3.4 or Kv4.2 using a Warner OC-725C amplifier and pClamp9 (Axon Instruments, Foster City, Calif.) software. Oocytes were bathed in a small-volume Warner oocyte bath and viewed with a Fisher dissection microscope. Bath solution for whole-cell oocyte recordings was (in mM): 96 NaCl, 4 KCl, 0.7 MgCl2, 1 CaCl2, 10 HEPES (pH 7.4); whole-cell oocyte TEVC pipettes were of 0.2-2 M resistance when filled with 3 M KCl. Experiments were performed 24-48 hours after cRNA injection. For assessment of current-voltage relationships in the absence or presence of dabco derivatives, oocytes were held at −80 mV, stepped for 2 seconds at voltages between −80 mV and +60 mV in 20 mV steps (Kv2.1) or between −80 and +50 mV in 10 mV steps (Kv3.4), then held for 500 ms at −40 mV before returning to the holding potential. For assessment of block during wash-in of dabco derivatives at a single voltage, oocytes were held at −80 mV, and repetitively stepped to 0 mV for 2 s with an interpulse interval of 10 s or 60 s as indicated. A range of concentrations of dabco or dabco derivatives were washed in via the bath solution during repetitive single-voltage pulses (after an initial period of 5 pulses with control solution to ensure current stabilization) until equilibrium block was achieved, to establish dose-responses. Inhibited currents are compared to the current at the end of 5-pulse control period, thus some bar graphs show ‘control’ current values slightly less than 1, and with an error bar, to show how much currents deviate in the absence of drug. Washout was performed after the highest concentration of blocker was washed in. […]\nTo investigate the mechanism of Kv channel block or opening by didabco compounds, the current-voltage relationship (I/V curve) of Δ1-28 Kv3.4 channels expressed in Xenopus oocytes was assessed using TEVC recording in the absence and presence of a didabco opener (JC279.3a, the 10 CH2-group didabco from FIG. 3) or a didabco blocker (JC638.2a, the para didabco from FIG. 4)."}, "Kv2.1-K356C": {"target": "T2, Kv2.1-K356C (Rattus norvegicus, UniProt P15387, K360C)", "T2 construct": "expressed in transfected cells; host or cells: Xenopus laevis oocytes (cRNA from pGA1)", "T2 sequence (P15387 1-857 K360C)": "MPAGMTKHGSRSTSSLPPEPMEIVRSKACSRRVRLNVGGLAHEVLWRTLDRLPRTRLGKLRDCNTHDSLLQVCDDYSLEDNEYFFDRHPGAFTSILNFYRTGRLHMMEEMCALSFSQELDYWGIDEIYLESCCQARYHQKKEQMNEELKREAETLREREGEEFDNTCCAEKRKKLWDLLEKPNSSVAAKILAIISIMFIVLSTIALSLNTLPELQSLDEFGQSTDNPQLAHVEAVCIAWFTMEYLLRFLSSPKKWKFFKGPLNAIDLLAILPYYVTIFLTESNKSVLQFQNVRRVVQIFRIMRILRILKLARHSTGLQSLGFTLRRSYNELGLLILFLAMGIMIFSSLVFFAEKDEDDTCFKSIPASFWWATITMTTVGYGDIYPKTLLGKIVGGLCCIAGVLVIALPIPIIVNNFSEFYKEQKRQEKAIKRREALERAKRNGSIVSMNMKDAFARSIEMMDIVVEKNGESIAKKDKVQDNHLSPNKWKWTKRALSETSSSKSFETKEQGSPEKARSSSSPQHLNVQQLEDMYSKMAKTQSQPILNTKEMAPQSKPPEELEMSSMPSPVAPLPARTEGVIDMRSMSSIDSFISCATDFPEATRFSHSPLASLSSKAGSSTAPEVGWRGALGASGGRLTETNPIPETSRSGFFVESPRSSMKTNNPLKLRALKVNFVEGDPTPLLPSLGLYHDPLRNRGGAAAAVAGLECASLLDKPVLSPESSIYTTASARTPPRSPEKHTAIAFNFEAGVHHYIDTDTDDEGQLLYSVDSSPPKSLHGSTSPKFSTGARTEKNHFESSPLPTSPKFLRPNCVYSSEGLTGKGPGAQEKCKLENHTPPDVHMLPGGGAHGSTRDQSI", "assay": "Cysteine protection experiments, K356C variant of Kv2.1 in oocytes", "settings": "K356C mutant", "text": "(§1) Kv2.1 mutants were constructed using the QuickChange Multi Site-Directed Mutagenesis Kit (Stratagene, La Jolla, Calif.). Mutant Kv2.1 genes (in the pGA1 oocyte expression vector for oocyte expression) were sequenced in their entirety to confirm appropriate mutations and check for inadvertent mutations, and then subcloned into a wild-type pGA1 backbone. For oocyte expression, Kv3.4 was in pBF1, Kv4.2 was in pRAT. cRNA transcripts were produced from SacII-linearized (Kv2.1), Mlullinearized (Kv3.4) and Not1-linearized (Kv4.2) DNA templates using the T3 (Kv2.1), SP6 (Kv3.4) and T7 (Kv4.2) mMessage mMachine kits (Ambion, Austin, Tex.). cRNA was quantified by spectrophotometry and its size integrity verified by gel electophoresis. Defolliculated stage V and VI Xenopus laevis oocytes (purchased from Nasco, Grand Island, N.Y.) were injected with 5 ng of cRNA encoding Kv2.1, Kv3.4 or Kv4.2. Chinese Hamster Ovary (CHO) cells were transfected with 0.25 μg Kv2.1 cDNA, 2 μg blank plasmid and 2 μg Green fluorescent Protein in pBOB using Supetfect transfection reagent (Qiagen) 24 hours before whole-cell voltage clamp studies.\nWhole-cell two-electrode voltage-clamp (TEVC) recordings were performed on X laevis oocytes expressing cloned Kv2.1, Kv3.4 or Kv4.2 using a Warner OC-725C amplifier and pClamp9 (Axon Instruments, Foster City, Calif.) software. Oocytes were bathed in a small-volume Warner oocyte bath and viewed with a Fisher dissection microscope. Bath solution for whole-cell oocyte recordings was (in mM): 96 NaCl, 4 KCl, 0.7 MgCl2, 1 CaCl2, 10 HEPES (pH 7.4); whole-cell oocyte TEVC pipettes were of 0.2-2 M resistance when filled with 3 M KCl. Experiments were performed 24-48 hours after cRNA injection. For assessment of current-voltage relationships in the absence or presence of dabco derivatives, oocytes were held at −80 mV, stepped for 2 seconds at voltages between −80 mV and +60 mV in 20 mV steps (Kv2.1) or between −80 and +50 mV in 10 mV steps (Kv3.4), then held for 500 ms at −40 mV before returning to the holding potential. For assessment of block during wash-in of dabco derivatives at a single voltage, oocytes were held at −80 mV, and repetitively stepped to 0 mV for 2 s with an interpulse interval of 10 s or 60 s as indicated. A range of concentrations of dabco or dabco derivatives were washed in via the bath solution during repetitive single-voltage pulses (after an initial period of 5 pulses with control solution to ensure current stabilization) until equilibrium block was achieved, to establish dose-responses. Inhibited currents are compared to the current at the end of 5-pulse control period, thus some bar graphs show ‘control’ current values slightly less than 1, and with an error bar, to show how much currents deviate in the absence of drug. Washout was performed after the highest concentration of blocker was washed in. In cases where washout was achieved, only those recordings in which current returned to within 10% of original current level were used for construction of dose-response curves. For cysteine protection experiments using the K356C variant of Kv2.1, a dabco derivative (JC638.2a) was washed in to equilibrium block, followed by wash-in of a solution containing both JC638.2a and MTSET until no further changes in current were seen; following this the solution was washed out with standard bath solution. As controls for this protection analysis, JC638.2a or MTSET were washed in alone until equilibrium block, then washed out."}, "[1]": {"target": "T3, Kv2.1 channels expressed in CHO cells (Rattus norvegicus, UniProt P15387)", "T3 construct": "expressed in transfected cells; host or cells: CHO cells (transient, co-transfected with GFP plasmid)", "T3 sequence (P15387 1-857)": "T2 sequence (P15387 1-857 K360C) with C360K", "assay": "Whole-cell voltage clamp of CHO cells transfected with Kv2.1", "settings": "20 mM, 0 mV", "text": "as §1\nFor whole-cell voltage clamp studies of CHO cells, bath solution was (in mM): 135 NaCl, 5 KCl, 1.2 MgCl2, 5 HEPES, 2.5 CaCl2, and 10 D-glucose, pH 7.4. Pipettes were 3-5 MQ resistance when filled with intracellular solution containing (in mM): 10 NaCl, 117 KCl, 2 MgCl2, 11 HEPES, 11 EGTA, and 1 CaCl2, pH 7.2. For experiments with extracellular drug application, cells were held at −80 mV and subjected to 2 sec test pulses […] every 30 s. Whole-cell patch clamp recordings were performed at 22-25° C. using an IX50 inverted microscope equipped with epifluorescence optics for GFP detection (Olympus), a Multiclamp 700 A Amplifier, a Digidata 1300 Analogue/Digital converter and pClamp9 software (Axon Instruments). Leak and liquid junction potentials (<4 mV) were not compensated for when generating current-voltage relationships. For intracellular drug application, the tip of the recording electrode was first filled with drug-free intracellular solution, the electrode was then back-filled with intracellular solution containing TEA (20 mM), TA279 (5 mM) or JC638.2α (0.5 mM). Cells were held at −80 mV and subjected to 2 sec test pulses from −60 mV to +60 mV in 10 mV increments, followed by a 1 sec tail pulse to −30 mV. After an initial recording which we denoted time 0, a second recording was performed after 5 minutes.\nData analysis: Current-voltage relationships were obtained by measuring peak current during depolarizing pulses. Inhibition constants for DABCO blockers were calculated after generating a dose response curve by fitting with a logistic dose-response function y=A2+[A1−A2/1+(x/x0)^p], where A1 is the maximum response plateau, A2 is the minimum response plateau, x is drug concentrator, x0 is the IC50, and p the Hill slope. Data analysis was performed using CLAMPFIT 9 (Axon Instruments, Foster City, Calif.) and tabulated in Excel 5.0. Graphs were generated using Origin 6.1. Data are expressed as mean±SEM, with n specifying the number of independent experiments. Statistical significance was assessed by one-way ANOVA with p<0.05 being indicative of significance."}}, "note": "Changes are numbered by the printed parent chain. Several values for one entry are separate records, joined by “and”; a condition that tells them apart may be missing. Identical values can stand only once."}
{"compound": "C(CCCCC[N+]12CCN(CC1)CC2)CCCC[N+]12CCN(CC1)CC2", "note": "[JC279.3a, 1,10-[bis(4-aza-1-azoniabicyclo[2.2.2]octanyl)]decane]", "values": [{"measurement": "block or opening of Δ1-28 Kv3.4", "setting": "Δ1-28 Kv3.4 channels", "value": "opener"}, {"measurement": "voltage dependence of block or opening of Kv3.4", "setting": "Δ1-28 Kv3.4 channels; attenuated at more depolarized voltages", "value": "voltage-dependent"}]}
{"compound": "C[N+](C)(C)CCSS(C)(=O)=O", "note": "[MTSET, reference compound]", "values": [{"measurement": "current inhibition, administered alone", "setting": "Kv2.1-K356C", "value": "56±3", "unit": "%"}]}
{"compound": "CC[N+](CC)(CC)CC", "note": "[TEA, tetraethylammonium, reference compound]", "values": [{"measurement": "block on intracellular application", "setting": "[1]; after 5 minutes", "value": "~88% and 80%"}, {"measurement": "block on intracellular application", "setting": "[1]; time 0", "value": "~85% and 70%"}]}
